Literature values as cited in patent US20110028498A1, “METHOD FOR EVALUATING PATIENTS FOR TREATMENT WITH DRUGS TARGETING RET RECEPTOR TYROSINE KINASE” (priority 2006, published 2011).

Test system: RET-dependent thyroid tumour cell growth
Settings: in vitro, literature

Q: With COc1cc2c(Nc3ccc(Br)cc3F)ncnc2cc1OCC1CCN(C)CC1 [vandetanib, 4-(4-bromo-2-fluoroanilino)-6-methoxy-7-(1-methylpiperidin-4-ylmethoxy)quinazoline] as the compound, how does the “growth-inhibitory effect on RET-dependent thyroid tumour cell growth” value read?
A: strong growth-inhibitory effect
